Test results reported in patent publication US20250319067A1, “Improved Pharmacokinetics of Tryptamine Prodrugs” (Reunion Neuroscience, Inc., priority 2023, published 2025).
Read-outs that look alike come from different tables or passages of the source.

What was measured:
[1] = Phase 1 FIH study: plasma pharmacokinetics (LC-MS/MS); type: in vivo; details: human; for Cmax / Tmax / half-life: female, plasma; for half-life: read-out: t1/2, mean (converted)
Procedure: The study was a double-blind, randomized, placebo-controlled Phase 1 single ascending dose study in up to 6 cohorts in healthy females. Eligibility was assessed during a screening period of up to 28 days prior to enrollment. For the treatment period, subjects were admitted to the clinical research unit (CRU) one day prior to the dosing (Day −1). On Day 1, all subjects will received the assigned SC dose of RE104 HCl or placebo in a fed state (after domiciling overnight and consuming a planned evening meal on Day −1 and morning meal on Day 1 while at the CRU). Subjects were allowed to select snacks from a planned menu from 4 hours following dosing. Subjects were discharged from the clinic on Day 2 (−24 hours post-dose) after all required study procedures were completed and if deemed medically fit. Subjects returned to the clinic on Day 10 (±2 days) for a follow up visit.
The concentrations of RE104 and isoprocin in plasma were determined using a validated Liquid chromatography tandem mass spectrometry (LC-MS/MS) assay.

[2] = Conversion in aqueous solution; type: physicochemical; details: as a function of pH

Question: For `CC(C)N(CCc1c[nH]c2cccc(OC(=O)CCCC(=O)O)c12)C(C)C` [RE104], which Cmax ([1]; RE104 dose 5.5 mg SC (n = 6)) is on record?
Answer: 173 ng/mL

Question: And the Tmax ([1]; RE104 dose 5.5 mg SC (n = 6))?
Answer: 25.2 min

Question: What about the half-life ([1]; RE104 dose 5.5 mg SC (n = 6)) of the same compound?
Answer: 31.8 min

Question: What about the Cmax ([1]; RE104 dose 11 mg SC (n = 6)) of the same compound?
Answer: 527 ng/mL

Question: And the Tmax ([1]; RE104 dose 11 mg SC (n = 6))?
Answer: 19.8 min

Question: What about the half-life ([1]; RE104 dose 11 mg SC (n = 6)) of the same compound?
Answer: 28.8 min

Question: And the Cmax ([1]; RE104 dose 22 mg SC (n = 6))?
Answer: 788 ng/mL

Question: And the Tmax ([1]; RE104 dose 22 mg SC (n = 6))?
Answer: 22.8 min

Question: What about the half-life ([1]; RE104 dose 22 mg SC (n = 6)) of the same compound?
Answer: 30 min

Question: And the Cmax ([1]; RE104 dose 33 mg SC (n = 9))?
Answer: 1460 ng/mL

Question: And the Tmax ([1]; RE104 dose 33 mg SC (n = 9))?
Answer: 15 min

Question: And the half-life ([1]; RE104 dose 33 mg SC (n = 9))?
Answer: 25.8 min

Question: What about the Cmax ([1]; RE104 dose 38 mg SC (n = 6)) of the same compound?
Answer: 1250 ng/mL

Question: And the Tmax ([1]; RE104 dose 38 mg SC (n = 6))?
Answer: 22.8 min

Question: What about the half-life ([1]; RE104 dose 38 mg SC (n = 6)) of the same compound?
Answer: 38.4 min

Question: And the Cmax ([1]; RE104 dose 44 mg SC (n = 3))?
Answer: 1800 ng/mL

Question: What about the Tmax ([1]; RE104 dose 44 mg SC (n = 3)) of the same compound?
Answer: 25.2 min

Question: And the half-life ([1]; RE104 dose 44 mg SC (n = 3))?
Answer: 31.2 min

Question: And the “time after administration by which not detectable in plasma” value ([1]; any dose)?
Answer: ≤ 5 h

Question: And the “conversion in aqueous solution” value [2]?
Answer: slow conversion
